In patent US20080213377A1, “Delivery of Nanoparticles and/or Agents to Cells” (priority 2006, published 2008):
No end group written: not given here.

Legend:
Recombinant MMP-2 = biological target: T1, Recombinant MMP-2 (Homo sapiens, UniProt P08253); assay: Protease activation of nanoparticles (TAMRA dequenching), MMP-2; conditions: 25 μM; MMP-2 2.5 μg/ml
T1 sequence (P08253 110-660): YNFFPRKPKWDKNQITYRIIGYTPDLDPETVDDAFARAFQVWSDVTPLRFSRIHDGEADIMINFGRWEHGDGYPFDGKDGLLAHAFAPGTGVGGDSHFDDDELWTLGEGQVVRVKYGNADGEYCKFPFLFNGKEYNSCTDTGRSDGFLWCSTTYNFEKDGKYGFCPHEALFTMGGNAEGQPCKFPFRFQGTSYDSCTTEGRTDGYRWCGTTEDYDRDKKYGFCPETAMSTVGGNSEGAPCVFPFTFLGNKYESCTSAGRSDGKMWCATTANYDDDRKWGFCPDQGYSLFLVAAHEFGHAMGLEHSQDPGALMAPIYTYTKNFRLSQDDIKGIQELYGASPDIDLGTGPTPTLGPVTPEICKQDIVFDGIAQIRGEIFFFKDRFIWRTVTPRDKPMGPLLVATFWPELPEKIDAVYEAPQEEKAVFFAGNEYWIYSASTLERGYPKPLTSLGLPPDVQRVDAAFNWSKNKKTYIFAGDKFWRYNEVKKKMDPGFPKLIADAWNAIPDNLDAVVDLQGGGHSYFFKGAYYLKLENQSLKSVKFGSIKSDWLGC
Source text: Activation was monitored by the release of TAMRA quenching at an excitation of 515 nm and emission of 580 nm.

[1] = test system: collagenase (Clostridiopeptidase A); assay: Protease activation of nanoparticles (TAMRA dequenching), collagenase; assay type: biochemical; conditions: 25 μM; collagenase 20 μg/ml
[2] = biological target: Nucleolin on the surface of HeLa cells (UniProt P19338); assay: cell-based or functional assay
Sequence of Nucleolin on the surface of HeLa cells (P19338 2-710 limits assumed): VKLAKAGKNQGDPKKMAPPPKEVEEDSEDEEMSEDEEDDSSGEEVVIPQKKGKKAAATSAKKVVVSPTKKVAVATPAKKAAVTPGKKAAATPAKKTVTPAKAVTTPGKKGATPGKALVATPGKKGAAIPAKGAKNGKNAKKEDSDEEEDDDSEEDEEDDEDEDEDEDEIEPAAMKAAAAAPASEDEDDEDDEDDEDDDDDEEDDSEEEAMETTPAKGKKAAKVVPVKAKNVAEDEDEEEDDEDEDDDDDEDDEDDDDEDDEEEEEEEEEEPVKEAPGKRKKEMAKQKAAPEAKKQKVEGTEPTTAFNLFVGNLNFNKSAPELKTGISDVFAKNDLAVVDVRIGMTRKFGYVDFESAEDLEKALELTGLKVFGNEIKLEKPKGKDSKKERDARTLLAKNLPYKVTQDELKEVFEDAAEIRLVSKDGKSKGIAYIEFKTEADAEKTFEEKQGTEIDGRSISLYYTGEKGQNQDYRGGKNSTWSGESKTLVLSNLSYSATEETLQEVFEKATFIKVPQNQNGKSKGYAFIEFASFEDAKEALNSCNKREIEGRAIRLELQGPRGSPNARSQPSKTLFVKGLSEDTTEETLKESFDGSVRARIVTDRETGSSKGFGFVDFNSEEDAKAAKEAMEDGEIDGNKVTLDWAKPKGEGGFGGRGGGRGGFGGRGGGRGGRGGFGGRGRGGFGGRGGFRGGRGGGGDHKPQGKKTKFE

HeLa cells = assay: QD internalization in HeLa cell monolayers, flow cytometry (Example 8); assay type: cell-based; conditions: free peptide 1 μM to 1 mM added with 50 nM F3-QDs
Source text: After four hours, cells were washed with media, treated with trypsin (0.25%) and EDTA, and resuspended in 1% BSA (in PBS) for flow cytometry (BD FACSort, FL1 for EGFP signal and FL3 for QD signal). Fluorescence data on 10,000 cells were collected for each sample and the geometric mean of intensity was reported.

[3] = test system: Free MMP-2 cleavable peptide substrate NH2-G-K(TAMRA)-G-P-L-G-V-R-G-C-CONH2
[4] = test system: Peptide-PEG (MMP-2 cleavable L-AA substrate coupled to 10 kDa PEG) immobilized on dextran-coated iron oxide nanoparticles
Glioblastoma cells = assay: Photoactivation of endosomal escape in glioblastoma cells; assay type: cell-based
Protocol: Fluorescein labeled CAR peptide ([…]) was synthesized using an ABI Model 433A peptide synthesizer from Biopolymers Laboratory, the MIT Center for Cancer Research. The peptide was cyclized by bubbling air into an aqueous solution of the peptide at 0.1 mg/ml overnight. Complete cyclization was confirmed by mass spectrometry and HPLC analysis.
Glioblastoma cells were obtained from the laboratory of Phil Sharp (MIT). The cyclized peptide (cCAR) was incubated with cells for 2 hours at 37° C. in complete culture medium (DMEM supplemented with serum, streptomycin, penicillin and fungizone). A monolayer of the cells was then rinsed with warm media three times. Microscopy photographs were taken after overnight incubation of the cells. For activation of photosensitizer, Arc lamp light from a microscope was irradiated onto the cells for two minutes.

CNC(=O)[C@H](Cc1c[nH]c2ccccc12)NC(=O)[C@@H](CC(=O)NO)CC(C)C [Galardin]
inhibition of nanoparticle activation (peptide-PEG cleavage) (Recombinant MMP-2): inhibits activation | inhibition of nanoparticle activation (peptide-PEG cleavage) [1]: inhibits activation

F3-QD (F3 peptide C[Ahx]… conjugated to PEG-amino quantum dots)
QD uptake by HeLa cells (flow cytometry) (orders of magnitude) [2]: 2

Lys-Ala-Arg-Glu-Cys (KAREC; printed: Lys-Ala-Arg-Glu-Cys) [KAREC peptide]
inhibition of F3-QD uptake by free peptide (HeLa cells): minimal

Recombinant MMP-2
Kcat/Km (cleavage of the substrate by MMP-2 over time, fluorescamine assay) [3]: 8.42 and 26.7 µM^-1 hr^-1 respectively | Kcat/Km (cleavage of the substrate by MMP-2 over time, TAMRA dequenching) [4]: 8.42 and 26.7 µM^-1 hr^-1 respectively | fold reduction of MMP-2 Kcat/Km against the free peptide [4]: reduces its associated MMP-2 Kcat/Km within a practical range, 3.2 fold

cyclic CAR peptide: Fluorescein labeled, cyclized CAR peptide (CARSKNKDC), binds heparan sulfate proteoglycans (also: fluorescein label, position not given here, cyclized, bond type not given here)
internalization into cells (Glioblastoma cells; 2 hours at 37° C., without light irradiation): internalized | endosomal escape upon light irradiation (Glioblastoma cells; Arc lamp light irradiation): distributed evenly inside cells
